Laboratory results published in patent US5667764A, “Compounds, compositions and methods for binding bio-affecting substances to surface membranes of bio-particles” (Zynaxis, Inc., priority 1992, dated 1997).
Where two headings read alike, the source gives them in different places. Values belong to the compound of their own block, whether it stands above or below them.

How the values were obtained:
[1] = test system: membrane ghosts; assay: Membrane binding stability (MBS) assay in membrane ghosts with 5% albumin; settings: 24 hours; for MBS (% of max.): Table II
Description: Determination of Membrane Binding Stability
For example, very stable binding to membranes might be required for applications such as delivery of therapeutic radionuclides to tumor sites, as loss of compound could lead to the radionuclide producing its toxic effect at non-tumor sites. On the other hand, more rapid loss of compound from biomembranes may be desirable for application involving controlled delivery rates of therapeutic agents. Accordingly, there is described hereinbelow an assay for determining MBS under conditions approximating those found in vivo.
In carrying out this assay, approximately physiological concentrations of serum albumin (5%) are used. […] To better approximate the effects of large fluid volumes to which labelled cells are exposed in vivo, the assay for MBS is carried out by suspending a decreasing number of labeled membrane ghosts in a fixed volume of albumin-containing saline. At 24 hours, the total amount of label present is determined by sampling the well mixed suspension; subsequently, the membrane ghosts are pelleted by centrifugation and the amount of label released into the supernatant is determined and expressed as a percent of total label. Percent retention is plotted against number of ghosts per ml. of suspension, and MBS is determined as the area under the curve between 5×10^7 ghosts/ml. and 4×10^8 ghosts/ml.

[2] = In vivo loss of dye from labeled, reinjected erythrocytes; settings: rabbit, iv
Description: *Half life for loss of dye from rabbit erythrocytes after labeling and

[3] = test system: red blood cell ghosts (plasma membrane); assay: Membrane retention coefficient (MRC) in red blood cell ghosts; assay type: binding; settings: 24 hr; Table II
In short: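 Red blood cell ghosts (~1×10^9/ml) were labelled 10 min with compound diluted in iso-osmotic sucrose from ethanol stocks, then washed repeatedly in PBS with 10% FBS over ≥24 h. Total and supernatant compound were measured after n-butanol extraction (fluorescence for fluorescent compounds), and MRC was calculated from these at each wash or time point.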

[4] = 1 mg/day human; cited from earlier work
[5] = test system: restenosis; settings: patients; limiting toxicity; cited from earlier work
[6] = Colchicine blood/plasma level in humans; assay type: in vivo; settings: 1 mg/day human; read-out: Peak plasma concentration
Method: (§1) Bochner et al., Handbook of Clinical Pharmacology, Little, Brown and Co., Boston (1983), pp. 151-152. […] Thus, the concentration of colchicine in rabbits shown to prevent restenosis was 14 times the concentration achieved in the clinical trial. The compounds of invention can be prepared in the above-described compatible binding media up to 100 μM, i.e., 1400 times the concentration shown to be effective in the animal study, and delivered directly to the arterial wall by catheter during an angioplasty procedure.

[7] = test system: A10 cells; assay: Antiproliferative activity on A10 cells after one 10 minute application; assay type: cell-based, rat; settings: for Cell count: 10 minute application; for activity at 10 µM: Rattus norvegicus, read-out: % of Vehicle Maximum
Method: To determine the antiproliferative action of the compounds of invention, in vitro studies were performed using A10 cells, a clonal cell line originally derived from the thoracic aorta of embryonic rats, that proliferate as myoblasts and develop into cells which phenotypically resemble smooth muscle cells (B. Kimes and B. Brandt, Exptl. Cell Res. 98:349 (1976). Typically, twelve-well plates were seeded with 2500-10,000 A10 cells/cm^2 in Dulbecco's Modified Eagles Medium (DMEM) with 10% fetal calf serum (FCS) and allowed to adhere and stabilize for 24 hours at 37° C. Test substances were then prepared in the required concentrations in appropriate cell binding media and, after aspirating the plating medium, applied to the individual wells at 37° C. for a period of only 10 minutes. The treatments were then aspirated, the wells washed 4 times with non-treatment containing medium and then placed in non-treatment containing DMEM with 10% FCS for the duration of the study. At various times after treatment application, triplicate wells were aspirated, the aspirate saved, and the wells treated with 0.25 ml of 0.25% trypsin to release the adherent cells. The enzymatic action of trypsin on the cells was stopped by addition of excess protein (1.75 ml DMEM+10% FCS), the aspirate returned to the wells, and an aliquot of the resultant cell suspension counted in a Coulter Counter (Model ZM with Sampling Stand II). Cell count was normalized to cells per square centimeter of growing area (surface area of well bottom).

[8] = Colchicine plasma concentration in rabbits (estimated); assay type: in vivo; settings: rabbit 0.2 mg/kg/day vs human 1 mg/day
Method: as §1

[9] = test system: rabbit hind limb (femoral arterial bed), substance P receptors; assay: Vascular response in rabbit blood perfused hind limb preparation; assay type: in vivo; settings: for ED50: calculated by logistic function, three rabbits; for Effect of antagonist [D-Pro^2,D-Trp^7.9]-substance P on the response: during infusion of antagonist; for Dose at which maximum fall in pressure is achieved / Threshold (minimum) dose required to produce a fall in perfusion pressure / Hind-limb perfusion pressure response: local injection; for Hind-limb perfusion pressure response: no antagonist
Description: The in vivo receptor pharmacology of the compound produced in Example 3d., above, was studied in a rabbit blood perfused hind limb preparation similar to that described by U. Forstermann et al., J. Pharmacol. Exp. Ther., 234: 1055-61 (1987). Blood from a pentobarbital anesthetized, artificially ventilated rabbit was withdrawn from a cannulated carotid artery, passed within medical grade silastic tubing through a constant speed roller pump, and directed to a cannulated femoral artery. Distal perfusion pressure in the femoral arterial bed was measured (in mm Hg) by means of a micropressure transducer (Millar) passed down the perfusion tubing so as to lie just beyond the tip of the femoral catheter. Initially, pump speed was adjusted so that distal perfusion pressure approximated systemic mean arterial blood pressure after which blood flow was kept constant for the remainder of each experiment. Changes in resistance then varied directly as distal perfusion pressure in a manner similar to that described by Ohm's law, such that:
Vascular Resistance=Perfusion Pressure Blood Flow
Thus, by maintaining blood flow constant for the duration of each experiment, changes in distal perfusion pressure directly reflected vascular resistance such that a decrease in pressure signifies vasodilation and an increase in pressure signifies vasoconstriction. Direct injection into the perfusion circuit could thus be used to assess the vascular biology and pharmacology of substances believed to exert actions on in vivo vascular smooth muscle tone.

[10] = test system: rabbit red blood cells; settings: native Substance P; cited from earlier work
[11] = test system: human RBCs; assay: Flow cytometry of conjugate-labeled human RBCs with anti-substance P antibody; assay type: cell-based
Method: Specifically, untreated RBCs and conjugate-labeled RBCs were analyzed to determine if:
1. The conjugate was incorporated on the surface of cells (FIG. 3A comparison).
2. Fluorescein isothiocyanate (FITC) conjugated goat anti-rabbit antibodies nonspecifically bound to the conjugate-labeled or non-labeled cells (FIG. 3B comparison), or
3. rabbit anti-substance P antibodies+FITC anti-rabbit antibodies specifically bound to the conjugate-labeled RBCs (FIG. 3C comparison).

[12] = test system: rabbit red blood cells; assay: In vivo stability of conjugate on red blood cells
Method: To study the in vivo characteristics of red blood cells labeled with the conjugate of Example 3d., above, 0.5 ml of fresh anticoagulated blood from each of 2 rabbits was labeled with the conjugate (final concentration, 10 μM) and injected back in the same rabbit from which the blood was taken. After the conjugate labeling but prior to injection, an aliquot of labeled cells was examined by flow cytometry to insure adequate labeling. Following in vivo administration of the labeled cells, blood samples were removed at 30 minutes, and then 1, 2, 3, 4, and 7 days and examined by flow cytometry for fluorescent cells.

[13] = test system: rabbit red blood cells; assay: Binding of conjugate to washed rabbit red blood cells, flow cytometry; assay type: cell-based; settings: ex vivo, 100 uM
Method: The conjugate of Example 3d. […] The fluorescent moiety of the conjugate allows its ready detection on RBCs by flow cytometry. When conjugate labeled rabbit RBCs are injected in the rabbit hind-limb, a reduction in perfusion pressure occurs, the magnitude of which is related to the number of injected cells.

MBS (% of max.) [1]: 79 ± 3.7 % of max.
half-life [2]: 58 days
Compound: CCCCCCCCCCCCCCCCN1C(=CC=CC2=[N+](CCCCCCCCCCCCCCCC)c3ccccc3C2(C)C)C(C)(C)c2ccccc21 [S]
MRC# (at 24 hr.) [3]: 87 ± 1.2

Compound: COc1cc2c(c(OC)c1OC)-c1ccc(OC)c(=O)cc1[C@@H](NC(C)=O)CC2 [Colchicine, colchicine]
Peak plasma concentration [4]: 2 ng/mL
Maximum tolerated dose [5]: ≤ 1 mg/day
Cmax [6]: 5 nM
Cell count ([7]; 10 μM, day 0): 3006.53 cells per square centimeter
Cell count ([7]; 10 μM, day 1): 3778.07 cells per square centimeter
Cell count ([7]; 10 μM, day 2): 4249.35 cells per square centimeter
Cell count ([7]; 10 μM, day 3): 7785.90 cells per square centimeter
Cell count ([7]; 10 μM, day 6): 57626.63 cells per square centimeter
Cell count ([7]; 10 μM, day 7): 118127.94 cells per square centimeter
% of Vehicle Maximum ([7]; 10 μM, day 0, 0 min): 1.44%
activity at 10 µM ([7]; A10, 24 h, 10 μM, day 1): 1.81%
activity at 10 µM ([7]; A10, 48 h, 10 μM, day 2): 2.04%
activity at 10 µM ([7]; A10, 72 h, 10 μM, day 3): 3.73%
activity at 10 µM ([7]; A10, 144 h, 10 μM, day 6): 27.6%
activity at 10 µM ([7]; A10, 168 h, 10 μM, day 7): 56.6%
Cell density relative to vehicle-treated cells ([7]; day 7): only one-half the cell density of vehicle-treated cells
Increase in cell number over that with the colchicine conjugate ([7]; day 7): approximately 10 fold
Colchicine concentration in rabbits vs clinical trial [8]: 14 times

Compound: CSCC[C@H](NC(=O)[C@H](CC(C)C)NC(=O)CNC(=O)[C@H](Cc1ccccc1)NC(=O)[C@H](Cc1ccccc1)NC(=O)[C@H](CCC(N)=O)NC(=O)[C@H](CCC(N)=O)NC(=O)[C@@H]1CCCN1C(=O)[C@H](CCCCN)NC(=O)[C@@H]1CCCN1C(=O)[C@@H](N)CCCNC(=N)N)C(N)=O [Substance P, reference compound]
ED50 [9]: 0.13 pmol
Effect of antagonist [D-Pro^2,D-Trp^7.9]-substance P on the response [9]: inhibited by [D-Pro^2,D-Trp^7.9 ]-substance P
Dose at which maximum fall in pressure is achieved [9]: 3 to 10 pmol
Threshold (minimum) dose required to produce a fall in perfusion pressure [9]: approximately 0.003 pmoles
Hind-limb perfusion pressure response [9]: brief, dose-related decreases in hind-limb perfusion pressure
Relative potency of substance P vs conjugate ([9]; ratio of ED50): 250 fold
Lifetime in circulation [10]: minutes

Compound: CCCCCCCCCCCCCCCCCCCCCC[N+]1=C(C=CC=C2N(CCCCCCCCCCCCCC)c3ccc(CNC(=O)c4ccc(C(=O)NCCCC[C@H](NC(=O)[C@@H]5CCCN5C(=O)[C@@H](N)CCCNC(=N)N)C(=O)N5CCC[C@H]5C(=O)N[C@@H](CCC(N)=O)C(=O)N[C@@H](CCC(N)=O)C(=O)N[C@@H](Cc5ccccc5)C(=O)N[C@@H](Cc5ccccc5)C(=O)NCC(=O)N[C@@H](CC(C)C)C(=O)N[C@@H](CCSC)C(N)=O)cc4)cc3C2(C)C)C(C)(C)c2ccccc21 [conjugate of Example 3d]
Red fluorescent signal of labeled cells ([11]; 10 μM, FIG. 3A): increased red fluorescent signal when compared with the unlabeled cells
Recognition of cell-bound Substance P by anti-substance P antibody ([11]; FIG. 3C): significant amount of both green and red fluorescence detectable on the cells
Perfusion pressure response to conjugate labeled RBCs ([9]; 10^6 -10^9 labeled RBCs injected): graded decreases in perfusion pressure in the rabbit hind limb preparation
ED50 [9]: 34 pmol
Effect of antagonist [D-Pro^2,D-Trp^7.9]-substance P on the response [9]: inhibited by [D-Pro^2,D-Trp^7.9 ]-substance P
Dose at which maximum fall in pressure is achieved [9]: 1000 pmol
Threshold (minimum) dose required to produce a fall in perfusion pressure [9]: 1 to 10 pmol
Hind-limb perfusion pressure response [9]: brief, dose-related decreases in hind-limb perfusion pressure
Hind-limb perfusion pressure response ([9]; listed as Substance P-lipophilic cyanine conjugate of Example 3.d.): capable of vasodilative activity which is qualitatively similar to that of native Substance P
Vasodilator activity of supernatant fraction of labeled RBCs ([9]; supernatant fractions of labeled RBCs): contained a significant portion of the biological activity of the original cell suspension
In vivo dissociation from labeled cells ([12]; up to 7 days): relatively slowly
Binding to red cells and effect in circulation ([12]; vs free peptide): bind stably to red cells and to provide a protracted therapeutic effect in circulation
Binding to red blood cells [13]: readily binds to washed rabbit red blood cells

MBS (% of max.) [1]: 55 ± 1.7 % of max.
MBS ([1]; Table III): 55 ± 1.6%
half-life [2]: 36 days
Compound: CCCCCCCCCCCCCCN1C(=CC=CC2=[N+](CCCCCCCCCCCCCC)c3ccccc3C2(C)C)C(C)(C)c2ccccc21 [R]
MRC# (at 24 hr.) [3]: 87 ± 0.6
